Source: patent US20120277265A1, “NOVEL POLYQUINOLINE DERIVATIVES AND THE THERAPEUTIC USE THEREOF” (CENTRE NATIONAL DE LA RECHERCHE SCIENTIFIQUE (C.N.R.S.), priority 2005, published 2012)

How the values were obtained:
[1] = Hydrogen peroxide produced by Aβ1-42 in the presence of CuCl2, ascorbate, air and ligand (Amplex Red H2O2/HRP); format: biochemical; details: CuCl2 0.4 μM, ascorbate 10 μM, air
Method: (§1) FIG. 11: Variation in H2O2 production by copper complexes of Aβ1-42 peptide as a function of the Cu(II)/Aβ stoichiometry. Experiments are carried out for 5 minutes in a sodium phosphate buffer (pH=7.4) in the presence 0.4 μM CuCl2, 10 μM ascorbate and air with or without 0.4 μM of 3 or 7. The H2O2 released is quantified by means of an Amplex-Red H2O2/HRP Assay kit.
(§2) The final concentrations are given. The reactions were carried out in the dark in mM sodium phosphate buffer (pH=7.4). Aβ1-42 (0.2 μM) and CuCl2 (0.4 μM) were pre-incubated for 1 hour at 37° C. while stirring at 1,400 rpm in 375 μl of buffer. Then 2 μl of a solution of ligand to be investigated (0.2; 0.4 or 0.8 μM) in DMSO were added. After incubation for a further hour, 2 μl of an aqueous sodium ascorbate solution (10 μM) were added and incubation was continued for 5 min while stirring. The amount of H2O2 produced is then quantified using an Amplex Red H2O2/HRP Assay Kit (Molecular Probes) while adding a volume of assay reagent to the samples, then incubating them for 1 hour at 37° C. while stirring at 500 rpm. […] Quantification is carried out on the basis of standard curves obtained with known amounts of H2O2.
(§3) The figures in the tables correspond to the amount of H2O2 (expressed in nanomoles) added using an Amplex Red H2O2/HRP Assay kit.

[2] = target: T1, copper complexes of Aβ1-42 peptide (Homo sapiens, UniProt P05067); test: as above; format: biochemical; details: CuCl2 0.4 μM, ascorbate 10 μM, air
T1 construct: The β-amyloid peptide Aβ1-42 (Aβ1-42) was synthesised, purified (to a purity greater than 95%); made in house; host or cells: chemical peptide synthesis (no expression host)
Method: as §1, §2, §3

[3] = Determination of log D7.4 (1-octanol / Tris-HCl buffer); format: physicochemical; details: 1-octanol / 20 mM Tris-HCl buffer containing 150 mM NaCl (pH = 7.4) (1/1, v/v)
Method: The ligand (2.0 mg) is dissolved in 2 ml of 1-octanol then 2 ml of 20 mM Tris-HCl buffer, pH=7.4 containing 150 mM NaCl are added. After mixing in a vortex for 3 min at ambient temperature, followed by centrifugation for 5 min at 9,000 rpm, the concentration of the ligand in each phase is determined by UV-visible spectrophotometry. The 1-octanol fractions are thus redivided until reproducible values of coefficient of division of obtained. This coefficient is expressed as the decimal logarithm of [(the concentration of ligand contained in the 1-octanol phase)/(the concentration of ligand contained in the buffered aqueous phase)]=log D7.4. Measurements were taken three times.

Aβ1-42 = target: T2, Aβ1-42 (Homo sapiens, UniProt P05067); test: Inhibition of the precipitation of Aβ1-42 by the addition of ligand (Micro BCA assay of soluble/aggregated peptide); format: biochemical; details: Aβ1-42 5 μM, pH 7.4; for CuCl2 % soluble Aβ: 20 μM CuCl2, 1 h 37° C. then 1 h with 200 μM ligand; for FeCl3 % soluble Aβ: 20 μM FeCl3, 1 h 37° C. then 1 h with 200 μM ligand; for ZnCl2 % soluble Aβ: 20 μM ZnCl2, 1 h 37° C. then 1 h with 200 μM ligand; for without metal % soluble Aβ: no metal salt, 1 h 37° C. then 1 h with 200 μM ligand
T2 construct: The β-amyloid peptide Aβ1-42 (Aβ1-42) was synthesised, purified (to a purity greater than 95%); made in house; host or cells: chemical peptide synthesis (no expression host)
Method: After a further hour of incubation, the reaction mixture is centrifuged.
Before use, the water [of Milli-Q Millipore quality] and all buffer solutions were treated on Chelex-100 resin (Biorad) (5 mg/ml) and filtered through 0.2 μm filters (Whatman) to remove potential traces of metal ions or particles.
Working solutions of the peptide were prepared by solubilising 1 mg of lyophilised peptide in 500 μl of water and 500 μl of an aqueous NaOH solution pH=12.0, while stirring in a Thermomixer Comfort (Eppendorf). The peptide preparations are subsequently centrifuged for 10 minutes at 9,000 rpm and the supernatant is used as an “Aβ stock” solution. The concentration of peptide in the “Aβ stock” is determined immediately by colorimetric assay using a Micro BCA Protein Assays kit (Pierce) from standard ranges produced using known amounts of bovine serum albumin (BSA) then the Aβ1-42 peptide solution is aliquoted and frozen rapidly in liquid nitrogen prior to being stored at −20° C. until being used.
Salts are generated by adding one hydrochloric acid equivalent per nitrogen group equivalent of the ligand dissolved in DMSO. After evaporation of the solvent, these salts are dissolved at the desired concentration with DMSO and kept at −20° C. until they are used.
The protocol was established from works by: C. S. Atwood et al., J. Neurochem. […] The final concentrations are given. 500 μl of Aβ1-42 (5 μM is set to aggregate in 20 mM Tris-HCl buffer containing 150 mM NaCl (pH=7.4) for 1 hour at 37° C. while stirring at 1,400 rpm in the absence or presence of metal ions: CuCl2, ZnCl2 or FeCl3 (20 μM). Then 50 pi of ligand to be tested (200 μM) dissolved in DMSO are added and the samples are incubated for 1 further hour at 37° C. while stirring at 1,400 rpm. The samples without ligand also receive 50 μl of DMSO. The samples (final volume=550 μ) are subsequently centrifuged for 20 min at 9,000 rpm, and 500 μl of supernatant are removed. The tube containing the precipitation pellet then receives 450 μl of assay buffer/DMSO mixture (91/9, v/v). […] Quantification is carried out on the basis of standard BSA ranges. The amounts of Aβ1-42 actually contained in the pellet and the supernatant are obtained after a correction due to the presence of a residual portion of supernatant in the pellet-containing fraction.
For the control experiments with derivatives comprising a single quinoline residue, […] of ligand were added because complexes of type L2Cu are conventionally used in these cases.

[4] = tested on: copper complexes of Aβ1-42 peptide; test: Stability of H2O2 during the H2O2 production inhibition experiments (known amount of H2O2 added); format: biochemical; details: for H2O2 assayed: no Aβ1-42, Cu(II) 0.4 μM, ascorbate 10 μM, ligand 0.4 μM
Method: The final concentrations are given. The reactions were carried out in the dark in mM sodium phosphate buffer (pH=7.4). Aβ1-42 (0.2 μM) and CuCl2 (0.4 μM) were pre-incubated for 1 hour at 37° C. while stirring at 1,400 rpm in 375 μl of buffer. Then 2 μl of a solution of ligand to be investigated (0.2; 0.4 or 0.8 μM) in DMSO were added. After incubation for a further hour, 2 μl of an aqueous sodium ascorbate solution (10 μM) were added and incubation was continued for 5 min while stirring. The amount of H2O2 produced is then quantified using an Amplex Red H2O2/HRP Assay Kit (Molecular Probes) while adding a volume of assay reagent to the samples, then incubating them for 1 hour at 37° C. while stirring at 500 rpm. H2O2 is then detected by spectrophotometry at 563 nm. Quantification is carried out on the basis of standard curves obtained with known amounts of H2O2.
Experiments were also carried out in the presence of a known amount of H2O2, added just before or just after the addition of sodium ascorbate, in order to investigate the stability of H2O2 under the experimental conditions employed.

T2 sequence (P05067 672-713): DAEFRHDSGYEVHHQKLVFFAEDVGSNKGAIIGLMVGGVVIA
T1 sequence (P05067 672-713 limits assumed, one chain of several): as the sequence (P05067 672-713) above

SMILES	amount of H2O2, without Aβ1-42 ([1]; ligand 1 eq/Cu(II) (0.4 μM))	amount of H2O2, 0.2 μM Aβ1-42 Cu/Aβ = 2 ([2]; ligand 1 eq/Cu(II) (0.4 μM))	amount of H2O2, 0.5 μM Aβ1-42 Cu/Aβ = 0.75 ([2]; ligand 1 eq/Cu(II) (0.4 μM))	logD at 3 min [3]	CuCl2 % soluble Aβ (Aβ1-42)	FeCl3 % soluble Aβ (Aβ1-42)	ZnCl2 % soluble Aβ (Aβ1-42)	without metal % soluble Aβ (Aβ1-42)	H2O2 assayed ([4]; 3.0 nanomoles H2O2 added just before the ascorbate)	H2O2 assayed ([4]; no H2O2 added)	theoretical value of H2O2 if there is no degradation (in parentheses) ([4]; no Aβ1-42, Cu(II), ascorbate, ligand, 3.0 nanomoles H2O2 added just before the ascorbate)	amount of H2O2, without Aβ1-42 ([1]; ligand 2 eq/Cu(II))	amount of H2O2, 0.2 μM Aβ1-42 Cu/Aβ = 2 ([2]; ligand 2 eq/Cu(II))	amount of H2O2, 0.5 μM Aβ1-42 Cu/Aβ = 0.75 ([2]; ligand 2 eq/Cu(II))
Oc1cccc2ccc(Cc3ccc4cccc(O)c4n3)nc12 [Compound 1, 2,2′-methanediyl-bis(8-hydroxyquinoline)]	0.54 nmol	0.75 ± 0.11 nmol	0.76 nmol	3.3 ± 0.1	60 ± 5%	61%	63%	63 ± 4%						
c1cnc2c(Oc3cccc4cccnc34)cccc2c1 [Compound 15, 8,8′-Oxydiquinoline]		1.02 nmol		2 ± 0.1	35%	42%	23%	72%						
O=C(Nc1cccc2cccnc12)c1cccc2cccnc12 [Compound 24, N-8-quinolinyl-8-quinoline carboxamide]	0.49 nmol	0.62 nmol	0.47 nmol	2.6 ± 0.1	21%	38%	21%	64%						
Cc1ccc2cccc(O)c2n1 [8-hydroxyquinaldine, reference compound]				2.4 ± 0.1	52%	51%	62%	69%						
COc1ccc2ccc(Cc3ccc4ccc(OC)c(O)c4n3)nc2c1O.Cl.Cl [Compound 16, 2,2′-(methanediyl)-bis(7-methyloxy-8-hydroxy-2-quinolinium) dichloride]		0.70 nmol			48 ± 3%	44 ± 6%	50%	53%						
O=C(Nc1ccc2cccc(O)c2n1)c1ccc2cccc(O)c2n1 [Compound 18, 8-hydroxy-N-(8-hydroxy-2-quinolinyl)-2-quinolinecarboxamide]	0.47 nmol	0.47 nmol	0.45 nmol	3 ± 0.1	46 ± 3%	49%	62 ± 5%	66%	3.5 (3.5) nanomoles	0.47 nmol	3.5 (3.5) nanomoles			
Oc1ccc(Cl)c2ccc(Cc3ccc4c(Cl)ccc(O)c4n3)nc12 [Compound 2, 2,2′-methanediyl-bis(5-chloro-8-hydroxyquinoline)]	0.56 nmol	0.80 ± 0.23 nmol	0.61 nmol	3.5 ± 0.1	45 ± 5%	58%	57%	66%						
Oc1cccc2ccc(CC(Cc3ccc4cccc(O)c4n3)c3ccc4cccc(O)c4n3)nc12 [Compound 11, 2,2′,2″-(1,2,3-Propanetriyl)-tris(8-hydroxyquinoline)]				3.7 ± 0.1	48%	43%	45%	48%						
Nc1cccc2cccnc12 [8-aminoquinoline, reference compound]				1.9 ± 0.1	40%	58%	67%	66 ± 3%						
Oc1cccc2cccnc12 [8-hydroxyquinoline, reference compound]	2.02 nmol	0.69 nmol	0.75 nmol	2.1 ± 0.1	70 ± 3%	80%	88%	85%				0.62 nmol	0.71 ± 0.05 nmol	0.62 nmol
